Laboratory results from patent US20260116910A1, “POLYCYCLIC COMPOUNDS AND METHODS THEREOF” (HEPAITECH (BEIJING) BIOPHARMA TECHNOLOGY CO., LTD., priority 2021, published 2026).

How the values were obtained:
human FXR (NR1H4) = target: T1, human FXR (NR1H4) (Homo sapiens, UniProt Q96RI1); experiment: Human FXR (NR1H4) agonist assessment, FXRE-NanoLuc reporter in HEK293T cells; type: cell-based; conditions: FXR activation, HEK293T FXRE-NanoLuc reporter, 24 hr; for EC50: read-out: EC50
T1 sequence (Q96RI1 1-476 isoform Q96RI1-1): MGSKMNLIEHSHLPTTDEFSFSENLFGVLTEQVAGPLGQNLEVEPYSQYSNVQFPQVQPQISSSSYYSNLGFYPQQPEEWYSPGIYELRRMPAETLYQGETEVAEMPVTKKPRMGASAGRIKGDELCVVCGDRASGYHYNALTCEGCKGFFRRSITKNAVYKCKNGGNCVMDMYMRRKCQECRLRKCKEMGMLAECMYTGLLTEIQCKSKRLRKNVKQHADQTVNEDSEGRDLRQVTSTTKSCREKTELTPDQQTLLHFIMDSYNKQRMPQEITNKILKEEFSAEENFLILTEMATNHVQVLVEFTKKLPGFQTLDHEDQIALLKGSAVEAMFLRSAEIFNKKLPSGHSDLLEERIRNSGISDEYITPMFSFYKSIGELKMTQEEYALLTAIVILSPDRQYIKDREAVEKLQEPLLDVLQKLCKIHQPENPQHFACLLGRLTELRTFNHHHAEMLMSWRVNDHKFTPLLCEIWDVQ
Procedure, shortened: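 HEK293T cells stably expressing human FXR with an FXRE-NanoLuc reporter were treated with compounds for 24 hr at 37 °C, with 0.01% DMSO as negative control. Medium was read for luminescence after 5 min with coelenterazine. EC50 was fitted by sigmoid to concentration-response data.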

MRGPRX4 = MRGPRX4 (Homo sapiens, UniProt Q96LA9); experiment: MRGPRX4 activation, Fluo-8 Ca2+ FLIPR assay in HEK293T cells stably expressing MRGPRX4; type: cell-based; conditions: for EC50: MRGPRX4 activation, Ca2+ fluorescence, no activation in tested range reported as III, read-out: Activity (EC50 μM)
Sequence of MRGPRX4 (Q96LA9 whole entry): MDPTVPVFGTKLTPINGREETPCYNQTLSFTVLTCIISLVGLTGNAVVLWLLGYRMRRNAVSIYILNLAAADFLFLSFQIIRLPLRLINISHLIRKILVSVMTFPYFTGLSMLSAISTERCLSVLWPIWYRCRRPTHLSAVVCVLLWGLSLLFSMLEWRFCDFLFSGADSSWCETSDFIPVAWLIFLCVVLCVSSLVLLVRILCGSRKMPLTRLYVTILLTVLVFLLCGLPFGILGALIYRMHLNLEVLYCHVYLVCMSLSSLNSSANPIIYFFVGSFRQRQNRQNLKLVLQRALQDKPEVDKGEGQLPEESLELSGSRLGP
Experimental: In some embodiments, cells were cultured in poly-D-Lys coated blacked walled, clear-bottom 96-well microplates. HEK293T cells stably expressing MRGPRX4 were cultured in DMEM medium supplemented with 10% FBS and 1% PS, at 37° C. in a humidified atmosphere with 5% CO2. Cells were detached by centrifuging (1000 rpm, 3 min). The pellet was re-suspended in medium, and cell density was adjusted to about 1×10^6 cells/mL. 100 μL suspension was seeded to each well of a microplates (cell plate). Cells in the microplates were cultured overnight. In the following day, cells were grown to higher than 95% density in each well.
Ca^2+ fluorescent dye loading: Fluo-8 AM (Screen Quest Fluo-8 AM Calcium Assay Kit, AAT Bioquest, cat. #: 21083) was diluted in HHBS buffer and adjusted to 2 μM (dye buffer). Medium in each well was changed into 50 μL dye buffer carefully. After incubation for 40-60 min under room temperature, the dye buffer was changed into 50 μL HHBS buffer.
The concentration of solution should be determined according to the protocol settings and experimental needs (e.g., Log[M]=−4, −5, −6, −7, −8, and −9). Prepare 2× serial dilution series of compounds (at least 75 μL per well).
A fluorescent signal baseline was measured using FLIPR®Tetra for 30 s. Then 50 μL of the chemical solution would be added to the cell plate. The fluorescent signal would be measured for another 150 s.
Activity of each compound was calculated by the fluorescence change (dF/F0). Curves were fitted to obtain EC50 values. In some embodiments, at least 3 repeats were performed to obtain the average values. For assessment of a compound, gradient diluted solutions of different concentrations were used to treat cells and corresponding responses were used to fit sigmoid function and to derive EC50 in Origin. In some embodiments, assessed concentrations were or included about 10^−4, 10^−4.5, 10^−5, 10^−5.5, 10^−6, 10^−6.5, 10^−7, 10^−8, and/or 10^−9 M; for example, in many instances, assessed concentrations included about 10^−5, 10^−6, 10^−7 and 10^−8 M. In some embodiments, assessed concentrations were about 10^−4, 10^−4.5, 10^−5, 10^−5.5, 10^−6, 10^−7, 10^−8, and 10^−9 M. In some embodiments, assessed concentrations were about 10^−4, 10^−5, 10^−6, 10^−7, 10^−8, and 10^−9 M. In some embodiments, assessed concentrations were about 10^−4, 10^−4.5, 10^−5, 10^−5.5, 10^−6, and 10^−7 M. In some embodiments, assessed concentrations were about 2000000, 1000000, 500000, 250000, 125000, 62500, 31250, 15625, 7813, 3906 nM. […] In some embodiments, assessed concentrations were about 30000, 10000, 3333, 1111, 370, 123, 41, 14, 4.6, 1.5 nM.

SMILES | Efficacy (maximum measured induction of NanoLuc, normalized to CDCA set as 100%) (human FXR (NR1H4)) | EC50 (human FXR (NR1H4)) [µM] | MRGPRX4 activation, fluorescence change (dF/F0), Average (MRGPRX4; Conc. (Log[M]) −4) | MRGPRX4 activation, fluorescence change (dF/F0), Average (MRGPRX4; Conc. (Log[M]) −4.5) | MRGPRX4 activation, fluorescence change (dF/F0), Average (MRGPRX4; Conc. (Log[M]) −5) | MRGPRX4 activation, fluorescence change (dF/F0), Average (MRGPRX4; Conc. (Log[M]) −5.5) | MRGPRX4 activation, fluorescence change (dF/F0), Average (MRGPRX4; Conc. (Log[M]) −6) | MRGPRX4 activation, fluorescence change (dF/F0), Average (MRGPRX4; Conc. (Log[M]) −7) | MRGPRX4 activation, fluorescence change (dF/F0), Average (MRGPRX4; Conc. (Log[M]) −8) | MRGPRX4 activation, fluorescence change (dF/F0), Average (MRGPRX4; Conc. (Log[M]) −9) | EC50 (MRGPRX4) [µM]
C[C@H](CC/C=C/C(=O)O)[C@H]1CC[C@H]2[C@@H]3CC[C@@H]4C[C@H](O)CC[C@]4(C)[C@H]3CC[C@]12C [1-7] | C (100%<efficacy <=300%) | 1 to 10 | 0.083 | 0.011 | −0.048 | −0.037 | −0.044 | −0.045 | −0.040 | −0.034 | < 50
CC(C[C@@H](C)[C@H]1CC[C@H]2[C@@H]3CC[C@@H]4CCCC[C@]4(C)[C@H]3CC[C@]12C)C(=O)O (stereo partly drawn) [2-1] | C (100%<efficacy <=300%) | > 10 | 0.071 | −0.014 | −0.045 | −0.072 | −0.095 | −0.110 | −0.072 | −0.091 | > 100
CC(O)CC[C@@H](C)[C@H]1CC[C@H]2[C@@H]3CC[C@@H]4CCCC[C@]4(C)[C@H]3CC[C@]12C (stereo partly drawn) [2-2] | C (100%<efficacy <=300%) | > 10 |  |  |  |  |  |  |  |  | > 100
C[C@H](CCC(C)(C)O)[C@H]1CC[C@H]2[C@@H]3CC[C@@H]4CCCC[C@]4(C)[C@H]3CC[C@]12C [2-3] | C (100%<efficacy <=300%) | 1 to 10 | 0.074 | 0.027 | −0.036 | −0.031 | −0.031 | −0.008 | −0.023 | −0.017 | > 100
CC[C@H]1[C@@H](O)[C@@H]2[C@H](CC[C@]3(C)[C@@H]([C@H](C)CC#N)CC[C@@H]23)[C@@]2(C)CCCC[C@@H]12 [2-4] | C (100%<efficacy <=300%) | > 10 | 0.008 | −0.025 | −0.026 | −0.018 | −0.037 | −0.025 | −0.038 | −0.037 | > 100
CC[C@H]1[C@@H](O)[C@@H]2[C@H](CC[C@]3(C)[C@@H]([C@H](C)CCO)CC[C@@H]23)[C@@]2(C)CCCC[C@@H]12 [2-5] | A (efficacy >400%) | 1 to 10 |  |  |  |  |  |  |  |  | > 100
CC[C@H]1[C@@H](O)[C@@H]2[C@H](CC[C@]3(C)[C@@H]([C@H](C)CCCOS(=O)(=O)O)CC[C@@H]23)[C@@]2(C)CCCC[C@@H]12 [2-6] | B (300%<efficacy <=400%) | 1 to 10 |  |  | −0.047 |  |  |  |  |  | 50 to 100
CC[C@H]1[C@@H](OC(=O)c2cccc(I)c2)[C@@H]2[C@H](CC[C@]3(C)C([C@H](C)CCC(=O)OC)=CC[C@@H]23)[C@@]2(C)CCCC[C@@H]12 [3-1] | C (100%<efficacy <=300%) | 1 to 10 | 0.008 | 0.004 | −0.027 | −0.004 | −0.017 | 0.005 | 0.001 | −0.001 | > 100
CC[C@H]1[C@@H](OC(=O)c2cccc(I)c2)[C@@H]2[C@H](CC[C@]3(C)C([C@H](C)CCC(=O)OC)=CC(=O)[C@@H]23)[C@@]2(C)CCCC[C@@H]12 [3-2] | C (100%<efficacy <=300%) | > 10 | 0.130 | 0.023 | −0.003 | −0.034 | 0.008 | −0.014 | −0.016 | −0.035 | > 100
CC[C@H]1[C@@H](OC(=O)c2cccc(I)c2)[C@H]2[C@@H]3[C@@H](O)C=C([C@H](C)CCC(=O)OC)[C@@]3(C)CC[C@@H]2[C@@]2(C)CCCC[C@@H]12 [3-3] | C (100%<efficacy <=300%) | > 10 | 0.041 | 0.052 | −0.045 | −0.013 | −0.015 | −0.015 | −0.031 | −0.014 | > 100
